In ChEMBL document CHEMBL1201862, “PubChem BioAssay data set” (2004):
Calls of active or inactive are those of the source.

Key:
[1] = biological target: T1, DNA repair and recombination protein RAD54-like (Homo sapiens, UniProt Q92698); experiment: RAD54 Holliday junction migration blockers – biochemical, fluorescence, cherry-picked samples, dose series, confirmation (AID 651657); type: functional
T1 sequence (Q92698 whole entry): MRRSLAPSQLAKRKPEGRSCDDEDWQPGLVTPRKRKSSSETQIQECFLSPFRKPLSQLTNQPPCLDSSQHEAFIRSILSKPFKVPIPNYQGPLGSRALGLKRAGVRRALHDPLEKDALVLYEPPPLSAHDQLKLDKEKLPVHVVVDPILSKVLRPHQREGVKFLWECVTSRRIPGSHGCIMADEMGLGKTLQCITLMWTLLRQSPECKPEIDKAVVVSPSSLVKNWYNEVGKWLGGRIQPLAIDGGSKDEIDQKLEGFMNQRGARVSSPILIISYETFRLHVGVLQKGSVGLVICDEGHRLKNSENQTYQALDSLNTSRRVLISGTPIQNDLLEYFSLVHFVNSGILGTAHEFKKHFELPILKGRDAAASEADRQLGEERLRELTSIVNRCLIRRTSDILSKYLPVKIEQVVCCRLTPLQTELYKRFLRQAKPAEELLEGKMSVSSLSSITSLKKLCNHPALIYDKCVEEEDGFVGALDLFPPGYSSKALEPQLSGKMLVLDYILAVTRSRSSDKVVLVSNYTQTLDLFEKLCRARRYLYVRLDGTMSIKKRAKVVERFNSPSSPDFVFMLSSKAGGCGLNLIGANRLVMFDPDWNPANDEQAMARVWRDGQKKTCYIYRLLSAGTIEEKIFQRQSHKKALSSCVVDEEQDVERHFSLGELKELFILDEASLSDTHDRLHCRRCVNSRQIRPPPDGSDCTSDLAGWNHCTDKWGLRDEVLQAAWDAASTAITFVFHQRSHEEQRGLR

[2] = biological target: Lysosomal acid glucosylceramidase (Homo sapiens, UniProt P04062); experiment: Dose response cell-based high throughput screening assay to identify enhancers of beta-glucosidase activity. [Related pubchem assays: 784 ]; type: functional
Lysosomal acid glucosylceramidase, sequence (P04062 whole entry): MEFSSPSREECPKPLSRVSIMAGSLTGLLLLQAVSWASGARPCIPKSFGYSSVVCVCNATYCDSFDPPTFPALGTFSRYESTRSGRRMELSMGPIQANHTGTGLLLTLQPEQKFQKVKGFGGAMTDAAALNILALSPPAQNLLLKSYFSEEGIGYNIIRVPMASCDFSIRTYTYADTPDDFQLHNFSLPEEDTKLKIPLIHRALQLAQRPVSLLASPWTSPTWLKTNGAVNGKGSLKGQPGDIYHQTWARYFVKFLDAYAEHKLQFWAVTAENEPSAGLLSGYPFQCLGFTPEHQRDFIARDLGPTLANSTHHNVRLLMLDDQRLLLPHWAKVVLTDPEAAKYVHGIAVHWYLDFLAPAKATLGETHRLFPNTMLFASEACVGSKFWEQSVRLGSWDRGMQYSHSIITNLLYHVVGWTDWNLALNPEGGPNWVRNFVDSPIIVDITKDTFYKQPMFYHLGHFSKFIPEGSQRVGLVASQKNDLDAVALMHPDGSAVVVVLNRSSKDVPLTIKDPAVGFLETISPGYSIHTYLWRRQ

Cytochrome P450 1A2 = biological target: T2, Cytochrome P450 1A2 (Homo sapiens, UniProt P05177);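 note: PubChem cytochrome P450 panel assay, CYP1A2 panel member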
T2 sequence (P05177 whole entry): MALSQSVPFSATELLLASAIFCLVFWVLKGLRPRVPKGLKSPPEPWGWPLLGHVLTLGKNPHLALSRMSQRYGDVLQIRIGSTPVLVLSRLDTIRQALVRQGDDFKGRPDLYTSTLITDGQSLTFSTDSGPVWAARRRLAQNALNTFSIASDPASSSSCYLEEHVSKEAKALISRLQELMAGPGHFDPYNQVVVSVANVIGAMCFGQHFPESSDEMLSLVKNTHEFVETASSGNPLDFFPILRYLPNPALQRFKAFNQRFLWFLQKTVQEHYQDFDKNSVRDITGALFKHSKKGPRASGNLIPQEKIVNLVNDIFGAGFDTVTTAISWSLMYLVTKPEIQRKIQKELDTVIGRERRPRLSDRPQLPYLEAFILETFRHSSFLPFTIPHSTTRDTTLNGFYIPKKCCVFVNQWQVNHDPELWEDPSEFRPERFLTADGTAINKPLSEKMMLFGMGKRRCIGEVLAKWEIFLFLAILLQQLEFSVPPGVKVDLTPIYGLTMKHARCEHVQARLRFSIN

Aminopeptidase N = biological target: T3, Aminopeptidase N (Plasmodium falciparum FcB1/Columbia, UniProt O96935); experiment: malaria alanyl aminopeptidase activity blockers – biochemical, fluorogenic H-Leu-NHMec substrate, 1536-well (AID 1445); parameters: species or system Plasmodium falciparum 3D7, 3D7
T3 sequence (O96935 whole entry): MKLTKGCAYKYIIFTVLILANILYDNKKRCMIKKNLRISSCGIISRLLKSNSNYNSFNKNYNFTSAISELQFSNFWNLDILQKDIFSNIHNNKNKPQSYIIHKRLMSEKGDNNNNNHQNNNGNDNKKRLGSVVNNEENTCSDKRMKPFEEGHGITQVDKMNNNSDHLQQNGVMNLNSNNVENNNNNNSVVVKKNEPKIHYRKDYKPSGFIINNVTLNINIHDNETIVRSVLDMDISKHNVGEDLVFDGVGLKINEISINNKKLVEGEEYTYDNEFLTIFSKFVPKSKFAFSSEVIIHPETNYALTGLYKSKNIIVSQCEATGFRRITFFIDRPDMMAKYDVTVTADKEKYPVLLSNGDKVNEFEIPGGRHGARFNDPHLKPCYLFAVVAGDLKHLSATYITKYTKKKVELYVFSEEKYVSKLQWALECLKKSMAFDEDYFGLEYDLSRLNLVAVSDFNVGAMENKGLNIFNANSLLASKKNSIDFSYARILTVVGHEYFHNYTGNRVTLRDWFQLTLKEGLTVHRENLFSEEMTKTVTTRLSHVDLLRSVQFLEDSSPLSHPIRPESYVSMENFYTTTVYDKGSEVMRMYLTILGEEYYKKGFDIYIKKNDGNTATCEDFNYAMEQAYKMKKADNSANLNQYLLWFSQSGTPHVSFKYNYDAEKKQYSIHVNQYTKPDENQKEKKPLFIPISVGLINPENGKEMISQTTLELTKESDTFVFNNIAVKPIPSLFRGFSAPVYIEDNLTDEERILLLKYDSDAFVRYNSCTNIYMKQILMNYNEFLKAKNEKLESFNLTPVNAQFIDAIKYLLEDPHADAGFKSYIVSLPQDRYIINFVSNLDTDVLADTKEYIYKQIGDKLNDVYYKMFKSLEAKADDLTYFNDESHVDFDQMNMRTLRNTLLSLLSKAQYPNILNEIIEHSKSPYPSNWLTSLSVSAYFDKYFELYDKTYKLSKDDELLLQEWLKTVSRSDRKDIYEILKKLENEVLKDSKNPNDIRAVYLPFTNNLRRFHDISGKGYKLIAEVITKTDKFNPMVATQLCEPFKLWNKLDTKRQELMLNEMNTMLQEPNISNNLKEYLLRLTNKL

Cytochrome P450 2D6 = Cytochrome P450 2D6 (Homo sapiens, UniProt P10635);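 note: CYP2D6 member of a cytochrome P450 panel assay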
Cytochrome P450 2D6, sequence (P10635 whole entry): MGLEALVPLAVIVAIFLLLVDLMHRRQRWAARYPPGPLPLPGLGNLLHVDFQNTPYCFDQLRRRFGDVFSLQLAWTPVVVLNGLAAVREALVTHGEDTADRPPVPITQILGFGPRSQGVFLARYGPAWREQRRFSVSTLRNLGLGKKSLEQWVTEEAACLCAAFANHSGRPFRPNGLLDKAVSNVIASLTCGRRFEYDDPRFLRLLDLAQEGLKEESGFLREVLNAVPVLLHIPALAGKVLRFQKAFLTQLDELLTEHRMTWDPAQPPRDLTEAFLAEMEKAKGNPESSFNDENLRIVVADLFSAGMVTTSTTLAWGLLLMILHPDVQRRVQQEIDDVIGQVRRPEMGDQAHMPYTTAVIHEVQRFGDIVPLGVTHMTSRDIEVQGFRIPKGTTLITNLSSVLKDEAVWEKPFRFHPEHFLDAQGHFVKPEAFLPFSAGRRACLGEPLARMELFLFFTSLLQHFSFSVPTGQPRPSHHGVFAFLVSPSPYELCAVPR

[3] = mRNA 3' processing disruption, beta-gal signal increase – luminescence, S. cerevisiae SKY197-pL101, dose response (AID 2525); type: functional, cell-based
HEK293 = experiment: EBV LMP1 TES2 canonical NF-kB signalling blockers – cell-based, HEK293, luciferase, cherry-pick, dose response (AID 588343); type: functional; details: Homo sapiens
[4] = biological target: T4, Rac GTPase-activating protein 1 (Homo sapiens, UniProt Q9H0H5); experiment: blockers of MgcRacGAP-driven Rac1 GTP hydrolysis – biochemical, ADP Hunter fluorescence, primary and confirmatory, confirmation (AID 624330); type: functional
T4 sequence (Q9H0H5 whole entry): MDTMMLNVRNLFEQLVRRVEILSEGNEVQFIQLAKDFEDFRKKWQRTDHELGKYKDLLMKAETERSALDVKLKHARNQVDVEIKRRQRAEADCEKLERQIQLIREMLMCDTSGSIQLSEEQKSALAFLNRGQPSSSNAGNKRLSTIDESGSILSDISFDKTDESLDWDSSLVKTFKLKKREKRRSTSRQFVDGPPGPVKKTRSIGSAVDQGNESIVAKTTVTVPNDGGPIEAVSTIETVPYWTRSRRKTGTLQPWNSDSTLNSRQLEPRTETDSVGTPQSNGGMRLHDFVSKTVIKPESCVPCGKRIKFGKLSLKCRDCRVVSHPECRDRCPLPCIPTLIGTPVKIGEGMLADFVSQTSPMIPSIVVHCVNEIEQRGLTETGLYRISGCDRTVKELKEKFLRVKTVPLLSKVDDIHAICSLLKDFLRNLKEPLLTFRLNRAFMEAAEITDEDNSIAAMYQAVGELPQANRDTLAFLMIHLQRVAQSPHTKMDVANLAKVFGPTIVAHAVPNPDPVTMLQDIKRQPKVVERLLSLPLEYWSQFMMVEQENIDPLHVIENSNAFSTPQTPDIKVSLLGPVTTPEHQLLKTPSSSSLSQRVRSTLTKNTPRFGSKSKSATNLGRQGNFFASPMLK

[5] = Luminescence Cell-Based Dose Confirmation HTS to Identify Inhibitors of Polyadenylation.; type: functional

Row | SMILES | AC50 [1] | EC50 [2] | AC50 (Cytochrome P450 1A2) | IC50 (Aminopeptidase N) | AC50 (Cytochrome P450 2D6) | EC50 [3] | AC50 (HEK293) | IC50 [4] | EC50 [5]
1 | CCN1CCN(CCCNC(=O)c2cc3cc4ccc(OC)cc4nc3o2)CC1 | 26.5 µM (active) | 15.9 µM (not active) | 31.6 µM (inconclusive) | 107 µM (active) | 1.41 µM (inconclusive) |  |  |  | 
2 | COc1cc(/C=C2\SC(=S)N(NC(=O)c3ccncc3)C2=O)ccc1O |  |  |  |  |  | 8.56 µM (active) | 222 µM (active) | 48.1 µM (active) | 7.59 µM (active)
